The target in assay [1] is T1, MUS81-ECE2 (Homo sapiens, UniProt P0DPD6+Q96NY9).
T1 sequence (P0DPD6 whole entry): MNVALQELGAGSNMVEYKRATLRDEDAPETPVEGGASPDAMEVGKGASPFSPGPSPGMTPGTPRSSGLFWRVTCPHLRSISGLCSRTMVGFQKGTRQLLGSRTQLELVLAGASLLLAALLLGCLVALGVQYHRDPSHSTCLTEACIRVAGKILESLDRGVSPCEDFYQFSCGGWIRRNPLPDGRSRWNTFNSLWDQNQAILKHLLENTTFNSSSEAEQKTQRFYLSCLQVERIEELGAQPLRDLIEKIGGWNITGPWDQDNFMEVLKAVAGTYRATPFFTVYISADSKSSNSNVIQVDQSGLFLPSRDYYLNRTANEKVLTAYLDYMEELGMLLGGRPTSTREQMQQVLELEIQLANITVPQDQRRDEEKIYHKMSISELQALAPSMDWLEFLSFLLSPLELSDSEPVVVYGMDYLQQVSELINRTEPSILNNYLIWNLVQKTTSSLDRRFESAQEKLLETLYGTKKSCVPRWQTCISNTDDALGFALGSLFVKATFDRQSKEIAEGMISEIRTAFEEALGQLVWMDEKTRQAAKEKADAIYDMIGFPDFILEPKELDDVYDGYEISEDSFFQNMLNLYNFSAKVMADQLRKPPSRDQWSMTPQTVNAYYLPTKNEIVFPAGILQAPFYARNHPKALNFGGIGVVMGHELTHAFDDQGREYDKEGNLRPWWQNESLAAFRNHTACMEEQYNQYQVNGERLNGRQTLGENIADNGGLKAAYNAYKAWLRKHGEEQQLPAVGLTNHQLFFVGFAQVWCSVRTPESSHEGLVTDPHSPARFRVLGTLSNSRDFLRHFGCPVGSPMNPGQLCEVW
T1 sequence (Q96NY9 whole entry): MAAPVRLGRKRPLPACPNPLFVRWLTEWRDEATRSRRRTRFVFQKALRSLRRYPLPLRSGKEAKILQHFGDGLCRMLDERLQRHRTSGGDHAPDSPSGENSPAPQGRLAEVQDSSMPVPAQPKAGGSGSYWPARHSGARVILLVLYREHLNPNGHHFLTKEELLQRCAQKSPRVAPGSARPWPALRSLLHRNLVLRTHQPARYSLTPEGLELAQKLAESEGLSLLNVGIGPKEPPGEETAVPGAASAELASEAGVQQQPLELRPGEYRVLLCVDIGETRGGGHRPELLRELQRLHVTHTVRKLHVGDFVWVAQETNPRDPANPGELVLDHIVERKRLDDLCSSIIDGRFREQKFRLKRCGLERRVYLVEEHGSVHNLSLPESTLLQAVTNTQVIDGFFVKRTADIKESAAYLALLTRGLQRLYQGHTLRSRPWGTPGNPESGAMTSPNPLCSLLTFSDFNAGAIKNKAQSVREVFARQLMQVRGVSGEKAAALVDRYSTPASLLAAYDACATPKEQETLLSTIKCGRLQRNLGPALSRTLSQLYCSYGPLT
The assay is described as follows: Inhibition of human GST-tagged MUS81-[…] expressed in Escherichia coli BL21(DE3)Rosetta2 cells incubated for 15 mins by FRET based assay.

For assay [2], the target named is T2, MUS81-ECE1 (Homo sapiens) (UniProt P42892+Q96NY9). In words: Inhibition of human GST-tagged MUS81-[…] expressed in Escherichia coli BL21(DE3)Rosetta2 cells using 3' FLAP as substrate incubated for 15 mins by FRET based assay. The following applies: dose 0.2-20 µM.
The target in assay [3] is T2, MUS81-ECE1 (Homo sapiens). In words: Inhibition of human GST-tagged MUS81-[…] expressed in Escherichia coli BL21(DE3)Rosetta2 cells using nDS as substrate incubated for 15 mins by FRET based assay. The following applies: dose 0.2-20 µM.
Assay [4] addresses T2, MUS81-ECE1 (Homo sapiens). The assay is described as follows: Inhibition of human GST-tagged MUS81-[…] expressed in Escherichia coli BL21(DE3)Rosetta2 cells using nHJ as substrate incubated for 15 mins by FRET based assay. As to conditions: dose 0.2-20 µM.
In assay [5] the target is T3, MUS81-ECE2 (Homo sapiens) (UniProt P0DPD6+Q96NY9). The assay is described as follows: Inhibition of human GST-tagged MUS81-[…] expressed in Escherichia coli BL21(DE3)Rosetta2 cells using 3' FLAP as substrate incubated for 15 mins by FRET based assay. The following applies: dose 0.2-20 µM.
Assay [6] addresses T3, MUS81-ECE2 (Homo sapiens). In words: Inhibition of human GST-tagged MUS81-[…] expressed in Escherichia coli BL21(DE3)Rosetta2 cells using nDS as substrate incubated for 15 mins by FRET based assay. The following applies: dose 0.2-20 µM.
Assay [7] concerns the target T3, MUS81-ECE2 (Homo sapiens). The assay is described as follows: Inhibition of human GST-tagged MUS81-[…] expressed in Escherichia coli BL21(DE3)Rosetta2 cells using nHJ as substrate incubated for 15 mins by FRET based assay. The following applies: dose 0.2-20 µM.
Assay [8] deals with T2, MUS81-ECE1 (Homo sapiens). In words: Binding affinity to human GST-tagged MUS81-[…] expressed in Escherichia coli BL21(DE3)Rosetta2 cells assessed as Kon by Surface plasmon resonance analysis. On the technique in general: SPR reads the build-up and loss of mass on a sensor chip optically.
Assay [9] deals with T2, MUS81-ECE1 (Homo sapiens). In words: Binding affinity to human GST-tagged MUS81-[…] expressed in Escherichia coli BL21(DE3)Rosetta2 cells assessed as Koff by Surface plasmon resonance analysis.
Assay [10] addresses T3, MUS81-ECE2 (Homo sapiens). The assay is described as follows: Binding affinity to human GST-tagged MUS81-[…] expressed in Escherichia coli BL21(DE3)Rosetta2 cells assessed as Kon by Surface plasmon resonance analysis.
The target in assay [11] is T3, MUS81-ECE2 (Homo sapiens). The assay is described as follows: Binding affinity to human GST-tagged MUS81-[…] expressed in Escherichia coli BL21(DE3)Rosetta2 cells assessed as Koff by Surface plasmon resonance analysis.
For assay [12], the target named is T1, MUS81-ECE2. In words: Binding affinity to human GST-tagged MUS81-[…] expressed in Escherichia coli BL21(DE3)Rosetta2 cells assessed as dissociation constant by Surface plasmon resonance analysis.
The target in assay [13] is T2, MUS81-ECE1 (Homo sapiens). In words: Binding affinity to human GST-tagged MUS81-[…] expressed in Escherichia coli BL21(DE3)Rosetta2 cells at more than 5 uM using nDS as substrate incubated for 30 mins by electrophoretic mobility shift assay. On the technique in general: In EMSA bound probe runs differently from free probe, usually more slowly.
Assay [14] concerns HeLa. The assay is described as follows: Inhibition of bleomycin-induced DNA-double stranded breaks in human HeLa cells assessed as reduction in gammaH2AX phosphorylation at serine 139 residue at 20 uM incubated for 1 hr by hoechst 33342 staining based immunofluorescence microscopic analysis. The class given is functional, cell-based.
The subject of assay [15] is HeLa. In words: Inhibition of bleomycin-induced DNA-double stranded breaks in human HeLa cells assessed as reduction in gammaH2AX level by Western blot analysis. The class given is functional, cell-based. On the technique in general: In western blotting, separated proteins are transferred to a membrane and probed.
Assay [16] has as its system MDA-MB-231. In words: Chemosensitivity of bleomycin-treated human MDA-MB-231 cells assessed as reduction in cell viability at 0.1 to 100 uM incubated for 24 hrs CCK-8 assay. As to conditions: dose 0.1-100 µM. The class given is functional, cell-based.
Assay [17] concerns MDA-MB-231. In words: Chemosensitivity of cisplatin-treated human MDA-MB-231 cells assessed as reduction in cell viability at 0.1 to 100 uM incubated for 24 hrs CCK-8 assay. Format: functional, cell-based. As to conditions: dose 0.1-100 µM.
Assay [18] deals with HeLa. The assay is described as follows: Chemosensitivity of bleomycin-treated human HeLa cells assessed as reduction in cell viability at 0.1 to 100 uM incubated for 24 hrs CCK-8 assay. The class given is functional, cell-based. As to conditions: dose 0.1-100 µM.
The test system of assay [19] is HeLa. In words: Chemosensitivity of cisplatin-treated human HeLa cells assessed as reduction in cell viability at 0.1 to 100 uM incubated for 24 hrs CCK-8 assay. The class given is functional, cell-based. The following applies: dose 0.1-100 µM.
Assay [20] deals with HepG2. The assay is described as follows: Chemosensitivity of bleomycin-treated human HepG2 cells assessed as reduction in cell viability at 0.1 to 100 uM incubated for 24 hrs CCK-8 assay. Format: functional, cell-based. As to conditions: dose 0.1-100 µM.
For assay [21], the system named is HepG2. The assay is described as follows: Chemosensitivity of cisplatin-treated human HepG2 cells assessed as reduction in cell viability at 0.1 to 100 uM incubated for 24 hrs CCK-8 assay. Format: functional, cell-based. As to conditions: dose 0.1-100 µM.
The target of assay [22] is T2, MUS81-ECE1 (Homo sapiens). The assay is described as follows: Inhibition of human GST-tagged MUS81-[…] expressed in Escherichia coli BL21(DE3)Rosetta2 cells using 3' FLAP as substrate at 40 uM.
The target in assay [23] is T2, MUS81-ECE1 (Homo sapiens). In words: Inhibition of human GST-tagged MUS81-[…] expressed in Escherichia coli BL21(DE3)Rosetta2 cells using nDS as substrate at 40 uM.
The test system of assay [24] is A549. The assay is described as follows: Chemosensitivity of bleomycin-treated human A549 cells assessed as reduction in cell viability at 0.1 to 100 uM incubated for 24 hrs CCK-8 assay. Format: functional, cell-based. As to conditions: dose 0.1-100 µM.
The subject of assay [25] is A549. In words: Chemosensitivity of cisplatin-treated human A549 cells assessed as reduction in cell viability at 0.1 to 100 uM incubated for 24 hrs CCK-8 assay. The class given is functional, cell-based. The following applies: dose 0.1-100 µM.

Active and inactive are the calls of the source. No cut-off for these calls is given here.

Usually IC50 stands for the point on the concentration scale where inhibition reaches its midpoint. Low values mean greater potency in that assay, high ones weaker potency in that assay. As a reminder, the Kd is the constant that tells how readily two partners part at equilibrium. The compound `O=C(N/N=C/c1cc(O)c(O)cc1O)c1cc2ccccc2cc1O` gave a half-maximal inhibitory concentration (IC50) against MUS81-ECE2 [1] of 2900 nM. Also, the inhibition result in [2], in assay [3], in [4], in assay [5], in [6] and in [7] was “Dose-Dependent Effect” throughout. Moreover, the K worked out at 6980 M⁻¹ s⁻¹ in assay [8], 0.004 s⁻¹ in assay [9], 6420 M⁻¹ s⁻¹ in [10] and 0.003 s⁻¹ in assay [11]. For the same compound, on MUS81-ECE2 [12], the dissociation constant Kd was 605 nM. Moreover, the result (in assay [13]; in the assay with MDA-MB-231 [16]; with MDA-MB-231 [17]) was Active. In addition, the inhibition entry with HeLa [14] and with HeLa [15] was “Active” throughout. Also, the result with HeLa [18], in the assay on HeLa [19], in the assay on HepG2 [20] and in the assay on HepG2 [21] was inactive.

As for `O=C(N/N=C/c1ccc(O)c(O)c1)c1cc2ccccc2cc1O` [DYNASORE], the K is 934 M⁻¹ s⁻¹ in assay [8], 0.005 s⁻¹ in assay [9], 1390 M⁻¹ s⁻¹ in [10] and 0.005 s⁻¹ in assay [11]. Also, the Kd at MUS81-ECE2 [12] was 4180 nM. The inhibition result in [22] and in assay [23] was “Active” throughout. Further, the inhibition entry with HeLa [14] and in the assay on HeLa [15] was “inactive” throughout. In addition, the result with A549 [24] and with A549 [25] was Active. The outcome with HeLa [18], in the assay on HeLa [19], in the assay with HepG2 [20] and in the assay on HepG2 [21] was inactive.

The record behind these values is ChEMBL document CHEMBL5325465, “Identification of small-molecule inhibitors of human MUS81-EME1/2 by FRET-based high-throughput screening” (Bioorg Med Chem, 2023).
